The values that follow come from patent publication US10201546B2, “Quinolinyl modulators of RORγt” (Janssen Pharmaceutica NV, priority 2013, dated 2019).

Broadly, the Kd is the constant that tells how readily two partners part at equilibrium. One may read the IC50 as the concentration at which inhibition is half-maximal. As usually defined, the inhibition is the percentage by which the read-out fell short of the control.

Experiment [1] addresses human RORγt ligand binding domain (RORγt LBD) (Homo sapiens (Human), UniProt P51449). Briefly: RORγt ThermoFluor assay (thermal shift, binding affinity Kd).
Experiment [2] has as its target human RORγt LBD fused to the DNA binding domain of the GAL4 protein (Homo sapiens (Human), UniProt P51449). Briefly: RORγt (LBD) reporter assay in HEK293T cells. The conditions noted are these: for inhibition at 6 µM: HEK-293T, read-out: RORγt (LBD) Reporter Assay, % inhibition @ 6 μM, @ 6 μM. The experiment is classed as cell-based. The arrangement: RORγt (LBD) Reporter Assay, % inhibition: dose or concentration left out as unconfirmed. On the technique in general: A reporter such as luciferase makes a cellular process visible.

Setting [3] is: read-out: ThermoFluor ® Assay, Kd.
[4] abbreviates: read-out: ThermoFluor Assay, Kd.

Molecules are shown by their SMILES. Where two headings read alike, the source gives them in different places. Some results are limits rather than exact numbers.

human RORγt LBD fused to the DNA binding domain of the GAL4 protein, sequence (P51449 258-518): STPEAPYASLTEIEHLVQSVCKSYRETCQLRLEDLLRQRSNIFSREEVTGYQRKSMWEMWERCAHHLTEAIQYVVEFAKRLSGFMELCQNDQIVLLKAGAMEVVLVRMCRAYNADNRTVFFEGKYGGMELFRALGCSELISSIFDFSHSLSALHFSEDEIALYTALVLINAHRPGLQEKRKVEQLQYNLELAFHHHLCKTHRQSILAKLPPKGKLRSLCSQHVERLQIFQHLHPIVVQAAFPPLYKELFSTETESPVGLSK
human RORγt ligand binding domain (RORγt LBD), sequence (P51449 other isoform, or with tags, fused parts or gaps): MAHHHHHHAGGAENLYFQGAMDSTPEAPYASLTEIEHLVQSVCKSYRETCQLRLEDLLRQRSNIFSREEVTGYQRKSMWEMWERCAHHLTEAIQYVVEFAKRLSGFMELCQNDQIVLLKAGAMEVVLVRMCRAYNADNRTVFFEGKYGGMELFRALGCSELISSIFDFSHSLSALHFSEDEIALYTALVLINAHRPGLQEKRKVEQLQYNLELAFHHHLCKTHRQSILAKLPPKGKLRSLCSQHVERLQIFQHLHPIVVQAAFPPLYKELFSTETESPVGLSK

For the compound `COc1nc2ccc(C(O)(c3ccc(C)nc3C)c3cnnn3C)cc2c(Cl)c1CC1CCS(=O)(=O)CC1` (single isomer, unassigned) [Example 2c, 4-((4-Chloro-6-((2,6-dimethylpyridin-3-yl)(hydroxy)(1-methyl-1H-1,2,3-triazol-5-yl)methyl)-2-methoxyquinolin-3-yl)methyl)tetrahydro-2H-thiopyran 1,1-dioxide], in experiment [1] (ThermoFluor Assay, Kd), the Kd was 0.11 µM.
As to `COc1nc2ccc(C(O)(c3cnc(C)n3C)c3cnc(C)n3C)cc2c(Cl)c1CNC(=O)CCC(F)(F)F` [Example 186, N-((6-(Bis(1,2-dimethyl-1H-imidazol-5-yl)(hydroxy)methyl)-4-chloro-2-methoxyquinolin-3-yl)methyl)-4,4,4-trifluorobutanamide], the Kd in experiment [1] (setting [3]) amounted to 0.59 µM.
With `Cc1c(-c2ccc3c(cnn3C)c2)nc2ccc(C(O)(c3cccnc3)c3cccc(Cl)c3)cc2c1Cl` (stereo not shown) [Example 24, [4-Chloro-3-methyl-2-(1-methyl-1H-indazol-5-yl)quinolin-6-yl](3-chlorophenyl)pyridin-3-ylmethanol], in experiment [2], the 50% inhibitory concentration (IC50) is more than 6 µM and the inhibition at 6 µM was 29%. Also, the Kd in experiment [1] (setting [4]) was determined as 2 µM.
For `CC(=O)N1CCC(C(O)(c2ccc3nc(C(F)(F)F)c(C(=O)N4CCCCC4)c(C(F)(F)F)c3c2)c2cncn2C)CC1` (stereo not shown) [Example 9, 1-(4-(Hydroxy(1-methyl-1H-imidazol-5-yl)(3-(piperidine-1-carbonyl)-2,4-bis(trifluoromethyl)quinolin-6-yl)methyl)piperidin-1-yl)ethanone], in that order: more than 6 µM, 16% and 8.2 µM.
For `COc1nc2ccc(C(O)(c3cncn3C)C3CCN(S(C)(=O)=O)CC3)cc2c(Cl)c1CC1CCOCC1` (stereo not shown) [Example 6a, (4-Chloro-2-methoxy-3-((tetrahydro-2H-pyran-4-yl)methyl)quinolin-6-yl)(1-methyl-1H-imidazol-5-yl)(1-(methylsulfonyl)piperidin-4-yl)methanol], in that order: more than 6 µM, 26% and 0.22 µM.
`Cc1ccc(C(O)(c2ccc3nc(Cl)c(CC(F)(F)F)c(N4CCC4)c3c2)c2cnnn2C)c(C)n1` (single isomer, unassigned) [Example 238b, [4-(Azetidin-1-yl)-2-chloro-3-(2,2,2-trifluoroethyl)-6-quinolyl]-(2,6-dimethyl-3-pyridyl)-(3-methyltriazol-4-yl)methanol]: in experiment [2], the IC50 was more than 6 µM and the “RORγt (LBD) Reporter Assay, % inhibition” value is on record as 9%. Further, the Kd in experiment [1] (setting [3]) stood at 13 µM.
As to `COc1nc2ccc(C(O)(c3ccc(C)nc3C)c3cnnn3C)cc2c(Cl)c1C(=O)N1CC(F)(F)C1` (stereo not shown) [Example 153, {4-Chloro-3-[(3,3-difluoroazetidin-1-yl)carbonyl]-2-methoxyquinolin-6-yl}(2,6-dimethylpyridin-3-yl)(1-methyl-1H-1,2,3-triazol-5-yl)methanol], the Kd in experiment [1] (setting [3]) was found to be 3 µM.
In the case of `COc1nc2ccc(C(O)(c3cncn3C)C3CCN(S(C)(=O)=O)CC3)cc2c(Cl)c1CC1CCOCC1` (single isomer, unassigned) [Example 6b, (4-Chloro-2-methoxy-3-((tetrahydro-2H-pyran-4-yl)methyl)quinolin-6-yl)(1-methyl-1H-imidazol-5-yl)(1-(methylsulfonyl)piperidin-4-yl)methanol], in experiment [2], the IC50 is more than 6 µM and the inhibition at 6 µM turned out to be 17%. Besides, in experiment [1] (setting [4]), the Kd was 0.24 µM.
For `COc1nc2ccc(C(O)(c3ccc(C)nc3C)c3cnnn3C)cc2c(Cl)c1C(=O)N1CCCC1` (stereo not shown) [Example 151, [4-Chloro-2-methoxy-3-(pyrrolidin-1-ylcarbonyl)quinolin-6-yl](2,6-dimethylpyridin-3-yl)(1-methyl-1H-1,2,3-triazol-5-yl)methanol], the Kd in experiment [1] (setting [3]) turned out to be 5.1 µM.
On to `COc1nc2ccc(C(O)(c3cnc(C)n3C)c3cnc(C)n3C)cc2c(Cl)c1OC1CCCN(C)C1` (single isomer, unassigned) [Example 51b, (4-Chloro-2-methoxy-3-{[1-methylpiperidin-3-yl]oxy}quinolin-6-yl)[bis(1,2-dimethyl-1H-imidazol-5-yl)]methanol], for which the dissociation constant (Kd) in experiment [1] (setting [4]) stood at 3 µM.
Consider `COc1nc2ccc(C(O)(c3ccc(C(F)(F)F)nc3)c3cncn3C)cc2c(C#N)c1CN1CCC(C(F)(F)F)CC1` (single isomer, unassigned) [Example 191c, 6-(Hydroxy(1-methyl-1H-imidazol-5-yl)(6-(trifluoromethyl)pyridin-3-yl)methyl)-2-methoxy-3-((4-(trifluoromethyl)piperidin-1-yl)methyl)quinoline-4-carbonitrile], for which, in experiment [1] (setting [3]), the Kd stood at 0.0031 µM.
The same measure, in the same setting: next, `COc1nc2ccc(C(O)(c3ccc(C(F)(F)F)nc3)c3cncn3C)cc2c(C#N)c1CN1CCC(C(F)(F)F)CC1` (single isomer, unassigned) [Example 191b, 6-(Hydroxy(1-methyl-1H-imidazol-5-yl)(6-(trifluoromethyl)pyridin-3-yl)methyl)-2-methoxy-3-((4-(trifluoromethyl)piperidin-1-yl)methyl)quinoline-4-carbonitrile]: 0.098 µM.
Take `COc1nc2ccc(C(O)(c3ccc(C)nc3C)c3cnnn3C)cc2c(Cl)c1C(=O)N1CCC(C(F)(F)F)CC1` (stereo not shown) [Example 83, (4-Chloro-2-methoxy-3-{[4-(trifluoromethyl)piperidin-1-yl]carbonyl}quinolin-6-yl)(2,6-dimethylpyridin-3-yl)(1-methyl-1H-1,2,3-triazol-5-yl)methanol]: the Kd in experiment [1] (setting [4]) came out at 0.36 µM.
For `COc1nc2ccc(C(O)(c3ccc(C)nc3C)c3cnnn3C)cc2c(Cl)c1C(=O)N(C)C` (stereo not shown) [Example 148, 4-Chloro-6-[(2,6-dimethylpyridin-3-yl)(hydroxy)(1-methyl-1H-1,2,3-triazol-5-yl)methyl]-2-methoxy-N,N-dimethylquinoline-3-carboxamide], the Kd in experiment [1] (setting [3]) was found to be 1.7 µM.
On to `COc1nc2ccc(C(O)(c3ccc(C)nc3C)c3cnnn3C)cc2c(Cl)c1C(=O)NCC(F)(F)F` (stereo not shown) [Example 152, 4-Chloro-6-[(2,6-dimethylpyridin-3-yl)(hydroxy)(1-methyl-1H-1,2,3-triazol-5-yl)methyl]-2-methoxy-N-(2,2,2-trifluoroethyl)quinoline-3-carboxamide], for which the Kd in experiment [1] (setting [3]) was 0.6 µM.
Consider `COc1nc2ccc(C(O)(c3cnc(C)n3C)c3cnc(C)n3C)cc2c(Cl)c1OCC1CCCN1C` (stereo not shown) [Example 52, {4-Chloro-2-methoxy-3-[(1-methylpyrrolidin-2-yl)methoxy]quinolin-6-yl}[bis(1,2-dimethyl-1H-imidazol-5-yl)]methanol], for which the Kd in experiment [1] (setting [4]) is 2.9 µM.
Consider `COc1nc2ccc(C(O)(c3cnc(C)n3C)c3cnc(C)n3C)cc2c(Cl)c1CNC(=O)CC(F)(F)F` [Example 185, N-((6-(Bis(1,2-dimethyl-1H-imidazol-5-yl)(hydroxy)methyl)-4-chloro-2-methoxyquinolin-3-yl)methyl)-3,3,3-trifluoropropanamide], for which the Kd in experiment [1] (setting [3]) was determined as 0.77 µM.
With `COc1nc2ccc(C(O)(c3ccc(C)nc3C)c3cnnn3C)cc2c(Cl)c1C(=O)NCC1CC1` (stereo not shown) [Example 147, 4-Chloro-N-(cyclopropylmethyl)-6-[(2,6-dimethylpyridin-3-yl)(hydroxy)(1-methyl-1H-1,2,3-triazol-5-yl)methyl]-2-methoxyquinoline-3-carboxamide], the Kd in experiment [1] (setting [3]) is 0.93 µM.
